Test results: patent EP4596561A1, “PHOSPHORUS-CONTAINING COMPOUND, PHARMACEUTICAL COMPOSITION AND USE THEREOF” (Suzhou Genhouse Bio Co., Ltd., priority 2022, dated 2024)

Tests used:
[1] = Stability test in liver microsomes; format: in vitro ADME, SD rat; conditions: rat liver microsomes, 0.5 mg/mL, 1.0 µM substrate
Procedure: (§1) Phase I metabolic stability of the test compounds in liver microsomes of CD-1 mice, Sprague-Dawley rats, and humans was assessed.
(§2) The animal and human liver microsomes used in the test system were purchased from Xenotech, Corning, or other qualified suppliers and stored in a freezer at a temperature below -60 °C prior to use. The information of the animal and human liver microsomes used was as follows:
(§3) The test samples and the reference compounds were separately incubated with animal and human liver microsomes at 37±1 °C for a period of incubation time of up to 60 min. The samples were taken out at the indicated time points, and the reaction was stopped with acetonitrile or another organic solvent containing an internal standard. After centrifugation, the resulting supernatants were assayed by the liquid chromatography-tandem mass spectrometry (LC-MS/MS) method.
(§4) Microsomes of each species were diluted into a 2× working solution with a 100 mM potassium phosphate buffer. […]
(§5) Incubation was performed in a 96-well plate. Eight incubation plates were prepared and designated T0, T5, T15, T30, T45, T60, Blank60, and NCF60, respectively. The first 6 plates corresponded to reaction time points of 0 min, 5 min, 15 min, 30 min, 45 min, and 60 min, respectively. No test sample or reference compound was added to the Blank60 plate, and samples were taken after 60 min of incubation. In the NCF60 plate, incubation was performed for 60 min using the potassium phosphate buffer instead of the NADPH regeneration system solution. Three replicates were made for samples in all conditions.
(§6) The microsomes and the test sample or reference compound were mixed, and then the incubation plates Blank60, T5, T15, T30, T45, and T60 except for T0 and NCF60 were placed in a 37 °C water bath for pre-incubation for about 10 min. In the incubation plate T0, a stop solution was first added, followed by the addition of the NADPH regeneration system working solution, and 98 µL of the potassium phosphate buffer was added to each sample well of the incubation plate NCF60 to initiate the reaction. After the pre-incubation of the incubation plates Blank60, T5, T15, T30, T45, and T60 was completed, 98 µL of the NADPH regeneration system working solution was added to each sample well to initiate the reaction. The reaction temperature was 37±1 °C, the final volume of the reaction was 200 µL, and the reaction system included 0.5 mg/mL microsomes, 1.0 µM substrate, 1 mM NADP, 6 mM ISO, and 1 unit/mL IDH.
(§7) At 5 min, 15 min, 30 min, 45 min, and 60 min, a cold stop solution containing an internal standard was added to the reaction plate to stop the reaction.
(§8) All the reaction plates after the reaction was stopped were shaken well and centrifuged at 3220× g at 4 °C for 20 min. After the supernatant was diluted at a certain ratio, LC-MS/MS analysis was performed.
(§9) Sample analysis was performed by the liquid chromatography-tandem mass spectrometry (LC-MS/MS) method without standard curves and quality control samples. Semi-quantitative determination was performed according to the ratio of the analyte peak area to the internal standard peak area. The retention times of the analyte and internal standard, the chromatogram acquisition, and chromatogram integration were processed using the Analyst software (Sciex, Framingham, Massachusetts, USA).
(§10) According to the well stir model, the hepatic intrinsic clearance and hepatic clearance can be converted through the following formula. CL(liver) = (CLint(liver)×Qh)/(CLint(liver)+Qh) [formula]

[2] = Stability test in liver microsomes; format: in vitro ADME; conditions: Human liver microsomes, 0.5 mg/mL, 1.0 µM substrate
Procedure: as §1, §2, §3, §4, §5, §6, §7, §8, §9, §10

NCI-H28 (NF2 wide-type) = assay: Inhibition of cell proliferation (CellTiter-Lumi); format: cell-based; conditions: Homo sapiens, 72 h + another 72 h treatment
[3] = system: NCI-H2452 (NF2 wide-type); assay: Inhibition of cell proliferation (CellTiter-Lumi); format: cell-based; conditions: Homo sapiens, 72 h + another 72 h treatment
[4] = system: MSTO-211H (NF2 wide-type); assay: Inhibition of cell proliferation (CellTiter-Lumi); format: cell-based; conditions: Homo sapiens, 72 h + another 72 h treatment
Procedure: NCI-H2052 (NF2 mutant), NCI-H226 (NF2 mutant), NCI-H2452 (NF2 wide-type), NCI-H28 (NF2 wide-type), and MSTO-211H (NF2 wide-type) cells were cultured in RPMI 1640 complete media.
The normally growing cells described above were digested with a trypsin cell-digesting solution, centrifuged, counted, and then plated in a 96-well plate at a density of 1000 cells per well. Administration was performed 24 h after the cell plating. Inhibitors at different concentration gradients were added at 10 µL per well, and three replicate wells were set for each concentration point. The starting concentration was 20 µM and diluted 8 times with a 4-fold gradient. A corresponding negative control group treated with 0.1% DMSO was also set up. After 72 h of drug treatment, the cell culture plate to be tested was taken out of the incubator. The culture medium in the 96-well plate was pipetted, and 190 µL of fresh RPMI 1640 complete medium was added. Another administration was performed, and the cells were cultured for another 72 h. The 96-well plate was taken out and allowed to equilibrate at room temperature for 10 min. The medium in the 96-well plate was pipetted, and 200 µL of CellTiter-Lumi™ luminescent cell viability detection solution (mixed with a medium in a ratio of 1:1) was added. After shaking for two minutes, the mixture was reacted at room temperature for 10 min. Then, 150 µL of liquid was pipetted from the transparent 96-well plate and transferred to a white 96-well plate for chemiluminescence reading. The background value was subtracted from the value for each well to calculate the cell survival rate. Survival rate (%) = […]. Sample is the chemiluminescence of the drug-treated group, and Vehicle is the […] of the DMSO control group. A sigmoidal dose-survival rate curve was plotted using a non-linear regression model in the GraphPad Prism 7.0 software, and the IC50 values or GI50 values were calculated.

| SMILES | half-life at 1 µM [1] | half-life at 1 µM [2] | IC50 (NCI-H28 (NF2 wide-type)) | IC50 [3] | IC50 [4] |
| --- | --- | --- | --- | --- | --- |
| CP(C)(=O)c1ccc(Nc2ccc(C(F)(F)F)cc2)c(-c2ncccn2)c1 [Example 12] | > 2.42 h | > 2.42 h | > 5 µM | > 20 µM | > 20 µM |
| CP(C)(=O)c1ccc2c(Oc3ccc(C(F)(F)F)cc3)cccc2c1 [Example 7] | > 2.42 h | > 2.42 h |  |  |  |
| CP(C)(=O)c1ccc(Nc2ccc(C(F)(F)F)cc2)c(-c2ccccn2)c1 [Example 10] | > 2.42 h | > 2.42 h | > 1.25 µM | > 5 µM | > 1.25 µM |
| CP(C)(=O)c1cnc(Nc2ccc(C(F)(F)F)cc2)c(-c2cn3c(n2)CCC3)c1 [Example 22] | > 2.42 h | > 2.42 h |  |  |  |
| Cc1ccc(Oc2ccc(C(F)(F)F)cc2)c2ccc(P(C)(C)=O)cc12 [Example 24] | 1.37 h | 2.77 h |  |  |  |
| Cn1cnc(-c2cc(P(C)(C)=O)cnc2Nc2ccc(C(F)(F)F)cc2)c1 [Example 8] | > 2.42 h | > 2.42 h |  |  |  |
| CP(C)(=O)c1ccc2c(c1)c1cccnc1n2-c1ccc(C(F)(F)F)cc1 [Example 5] |  |  | > 1.25 µM | > 20 µM | > 5 µM |
| CP(C)(=O)c1ccc2c(c1)c1ccccc1n2-c1ccc(C(F)(F)F)cc1 [Example 1] | > 2.42 h | > 2.42 h |  |  |  |
| Cn1cnc(-c2cc(P(C)(C)=O)ccc2Nc2ccc(C(F)(F)F)cc2)c1 [Example 14] | > 2.42 h | > 2.42 h |  |  |  |
